Measurements from patent publication US11167015B2, “Arginine and its use as a T cell modulator” (INSTITUTE FOR RESEARCH IN BIOMEDICINE, priority 2016, dated 2021).

Assays:
arginase = arginase inhibition; cited from earlier work
activated CD4+ T cells [1] = test: IL-2 withdrawal assay and assessment of cell viability, CD4+ T cells; assay type: cell-based, human; conditions: for survival of activated CD4+ T cells in the absence of exogenous cytokines: metabolites 3 mM, except for spermidine 0.1 mM, 5 days after IL-2 withdrawal
Description: Naïve CD4 T cells were activated with plate-bound CD3 and CD28 antibodies. 48 h after activation IL-2 was added to culture media (500 U ml^−1). After a further 3 days of culturing, cells were washed, counted and equal cell numbers were plated in medium devoid of IL-2. The withdrawal medium was no longer supplemented with e.g. L-arginine. Cell viability was assessed with annexin V.

human naïve CD4+ T cells [2] = test: T cell proliferation (CellTrace Violet dilution); assay type: cell-based
Description: (§1) FIG. 10. […] (A) Kinetics of T cell proliferation. Human naïve CD4+ T cells were labeled with CellTraceViolet (CTV) and activated in Ctrl medium or in L-Arg medium or in medium supplemented with 3 mM D-arginine or 3 mM L-arginine together with 3 mM L-lysine. Cell divisions were monitored at 48 h and 72 h by flow cytometry. (B) CTV-labeled CD4+ T cells were activated in normal medium or L-Arg medium and the dilution of CTV was measured over time by flow cytometry. n=5 from two donors. (C) 3H-L-arginine uptake by 3 day-activated CD4+ T cells during a 15 minutes pulse. Where indicated, 3 mM L-arginine, D-arginine or L-lysine was added to the culture medium as a competitive uptake inhibitor. n=7 for control, n=9 for L-Arg, n=5 for D-Arg, and n=9 for L-Lys. Bars represent the s.e.m.

activated CD4+ T cells [3] = test: 3H-arginine uptake assay and calculation of proteome incorporation; assay type: cell-based, human; conditions: 3 mM added as competitive uptake inhibitor, 15 minutes pulse, 3 day-activated CD4+ T cells
Description: as §1

[4] = tested on: C56BL/6 wild type (Wt) or Arg2−/− T cells; test: In vitro T cell survival with wild type or Arg2-/- mouse T cells; assay type: cell-based; conditions: norNOHA 500 μM, 2 days after IL-2 withdrawal
96 h-activated T cells = test: 13C-L-arginine metabolic tracing (metabolic flux experiments); assay type: cell-based, human; conditions: addition of arginase inhibitor, 13C6-L-arginine pulse
Description: FIG. 2. L-arginine is rapidly metabolized upon activation (A) Intracellular abundance of L-arginine in non-activated (non-act) and activated naïve CD4^+ T cells (CD3+CD28 antibodies). Boxplot, n=30 from three donors, each in a different color; a.u. arbitrary units. (B) Kinetics of ^3H-L-arginine uptake during a 15 min pulse. Box plot, n=5 from three donors. (C) Uptake, proteome incorporation and intracellular abundance of the indicated amino acids. Barplot (left): 5×10^4 cells were activated for 4 days and consumption of amino acids from medium was analyzed. Essential amino acids are in grey; n=4 from four donors, error bars represent s.e.m. […] Heat map (right): Intracellular amino acid abundance relative to naive T cells over time as determined by MS; n=30 from three donors. […] Black dots are metabolites that were not detected by MS. Only enzymes that were detected by MS are shown. […] 96 h-activated T cells were pulsed with ^13C6-L-arginine and the metabolic fate was analyzed by LC-MS/MS at different time points. AFL, Apparent fractional labeling; n=4 from two donors. ^13C Citrulline was not detected.
Naïve CD4^+ T cells were activated and 4 days, later extensively washed and pulsed with L-arginine free RPMI medium containing 1 mM [U-^13C]-L-Arginine hydrochloride (Sigma). […] Metabolites were extracted and analyzed by HILIC LC-MS/MS. […]

human naïve CD4+ T cells [5] = test: kinetic metabolome analysis of activated T cells; assay type: cell-based; conditions: added to the culture medium at the same concentration as L-arginine (3 mM)
Description: (B) Differential analysis of the glycolytic pathway between naïve CD4^+ T cells cultured in L-Arg medium or Ctrl medium, 96 h after activation. Log 2 fold changes of proteins and metabolites are color-coded. […] 3-P-Glycerate and 2-P-Glycerate could not be distinguished as they have the same mass. (C) 72 h-activated T cells were plated in fresh medium and glucose consumption was determined enzymatically after 24 h; n=9 from three donors. (D) Seahorse experiment performed with activated (96 h) T cells from one donor. Oligomycin was injected after 56 min, FCCP after 96 min, and antimycin (to inhibit the respiratory chain) after 136 min. Data are representative of 5 independent experiments with different donors.
(A) Human naïve CD4^+ T cells were activated in normal medium or in L-Arg medium. Nitric oxide formation was measured using DAF-FM diacetate at different time points.
Naïve CD4^+ T cells were either analyzed directly after isolation or at different time points after activation with CD3 and CD28 antibodies. Cells were washed twice in 96-well plates with 75 mM ammonium carbonate at pH 7.4 and snap frozen in liquid nitrogen. Metabolites were extracted three times with hot (>70° C.) 70% ethanol. Extracts were analyzed by flow injection—time of flight mass spectrometry on an Agilent 6550 QTOF instrument operated in the negative mode, as described previously (Fuhrer et al., 2011). Typically 5,000-12,000 ions with distinct mass-to-charge (m/z) ratio could be identified in each batch of samples. Ions were putatively annotated by matching their measured mass to that of the compounds listed by the KEGG database for Homo sapiens, allowing a tolerance of 0.001 Da. Only deprotonated ions (without adducts) were considered in the analysis. In case of multiple matching, such as in the case of structural isomers, all candidates were retained.

N[C@@H](CSCCB(O)O)C(=O)O [BEC, S-(2-boronoethyl)-L-cysteine]
intracellular L-arginine levels (arginase): increase intracellular L-arginine levels

NC(N)=O [urea]
survival of activated CD4+ T cells in the absence of exogenous cytokines (activated CD4+ T cells [1]): had no effect

N=C(N)NCCC[C@@H](N)C(=O)O [D-arginine]
onset of proliferation (human naïve CD4+ T cells [2]; 3 mM in medium): not affected | L-arginine uptake (activated CD4+ T cells [3]): inhibit L-arginine uptake | survival of activated CD4+ T cells in the absence of exogenous cytokines (activated CD4+ T cells [1]): decreased T cell survival significantly

O=C(O)[C@@H]1CCCN1 [proline, L-proline]
survival of activated CD4+ T cells in the absence of exogenous cytokines (activated CD4+ T cells [1]): had no effect

Cl.N=C(N)NCCC[C@H](N)C(=O)O [L-arginine-HCl, L-arginine hydrochloride]
survival of activated CD4+ T cells in the absence of exogenous cytokines (activated CD4+ T cells [1]): enhanced T cell survival to a similar extent

NCCCCN [putrescine]
survival of activated CD4+ T cells in the absence of exogenous cytokines (activated CD4+ T cells [1]): decreased T cell survival

N=C(NO)NCC[C@H](N)C(=O)O [norNOHA, N^ω-Hydroxy-nor-L-arginine]
intracellular L-arginine levels (arginase): increase intracellular L-arginine levels | survival of Arg2−/− T cells after IL-2 withdrawal [4]: did not affect survival | survival of wild type T cells after IL-2 withdrawal [4]: increasing the survival | conversion of L-arginine into agmatine (96 h-activated T cells): did not affect | conversion of L-arginine into ornithine, putrescine, spermidine and proline (96 h-activated T cells): markedly reduced

NC(=O)NCCC[C@H](N)C(=O)O [L-citrulline, reference compound]
effects on metabolism (human naïve CD4+ T cells [5]): only had minor effects | survival of activated CD4+ T cells in the absence of exogenous cytokines (activated CD4+ T cells [1]): had no effect

N=C(N)NCCCCN [agmatine]
survival of activated CD4+ T cells in the absence of exogenous cytokines (activated CD4+ T cells [1]): decreased T cell survival

NC(=O)C1CCCc2c1[nH]c1ccc(Cl)cc21 (centres unmarked) [Ex-527]
L-arginine-mediated increase in survival in the presence of the Sirtuin-1 inhibitor (activated CD4+ T cells [1]; Ex-527 5 μM added at activation): comparable to controls

NCCCC[C@H](N)C(=O)O [L-lysine]
onset of proliferation (human naïve CD4+ T cells [2]; 3 mM L-lysine added to L-arginine-supplemented cultures): not affected | L-arginine uptake (activated CD4+ T cells [3]): inhibit L-arginine uptake | survival of activated CD4+ T cells in the absence of exogenous cytokines (activated CD4+ T cells [1]): decreased T cell survival significantly

[N]=O [nitric oxide]
T cell survival (role of nitric oxide) (activated CD4+ T cells [1]; nitric oxide synthase inhibitors DiMeArg or L-NAME at 1 mM): had no effect

CN(CC(=O)O)C(=N)N [creatine]
survival of activated CD4+ T cells in the absence of exogenous cytokines (activated CD4+ T cells [1]): had no effect

NCCCCNCCCN [spermidine]
survival of activated CD4+ T cells in the absence of exogenous cytokines (activated CD4+ T cells [1]): decreased T cell survival
